Columns and labels:
Assay type in all cases: biochemical
human GST-DYRK1A = target: T1, human GST-DYRK1A (Homo sapiens, UniProt Q13627); assay: GST-DYRK1A enzyme inhibition, ADP-Glo kinase assay; settings: ATP 10 μM, GST-DYRK1A full length, read-out: DYRK1 IC50
T1 construct: purified human GST-DYRK1A (full length, Thermo Scientifics) enzyme; purchased Thermo Scientifics
Procedure, shortened: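 Full-length human GST-DYRK1A (10 ng) with 10 μM ATP and specific substrate in 40 mM Tris-HCl pH 7.4, 20 mM MgCl2, 0.5 mg/mL BSA, 50 μM DTT, 1 h at 25 °C. ADP formation read by ADP-Glo luminescence relative to solvent control; IC50 from three data sets.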

human GST-CLK1 = target: T2, human GST-CLK1 (Homo sapiens, UniProt P49759); assay: GST-CLK1 enzyme inhibition, ADP-Glo kinase assay; settings: ATP 10 μM, GST-CLK1 129-end
T2 construct: purified human GST-CLK1 (129-end, SignalChem) enzyme; purchased SignalChem
Procedure, shortened: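 Human GST-CLK1 (129-end, 3 ng) reacted with substrate and 10 μM ATP for 1 h at 25° C in 40 mM Tris-HCl pH 7.4, 20 mM MgCl2, 0.5 mg/mL BSA, 50 μM DTT. ADP-Glo luminescence was normalised to solvent control; IC50 (nM) from 3 data sets.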

LRRK2 (G2019S) = LRRK2 (G2019S) (Homo sapiens, UniProt Q5S007, G2019S); assay: LRRK2 G2019S enzyme inhibition, ADP-Glo kinase assay; parameters: purchased SignalChem L10-12GG; settings: ATP 25 μM
Method: To evaluate an inhibitory activity of the compound according to the present invention against LRRK2, LRRK2 (G2019S), DYRK1, CLK1, and TTK kinases, experiments were performed as follows.
Each of the Example compounds was reacted with a purified human LRRK2 G2019S (L10-12GG, SignalChem) enzyme to evaluate an ability to inhibit an enzyme using a method as described below. A composition of 40 mM Tris-HCl (pH 7.4), 20 mM MgCl2, 0.5 mg/mL BSA, and 50 μM DTT was used as a reaction buffer, and all reactions of test substances were performed in the reaction buffer. Each of the compounds was diluted […] from a 10 mM DMSO stock using a serial dilution method, and enzyme activities were measured at final compound concentrations of 50, 10, 2, 0.4, 0.08, 0.016, 0.0032, 0.00064, 0.000128, 0.0000256, 0.00000512, and 0.000001024 μM. In the test, purified ATP (25 μM) and an enzyme substrate (0.2 μg) were reacted with a human LRRK2 G2019S (16 ng) enzyme at 25° C. for 2 hours, and the enzyme activities were then determined using an in vitro ADP-Glo™ kinase assay (Promega). An enzyme-activity reaction solution, an ADP-Glo reaction solution, and an enzyme-ability detection solution were reacted at a ratio of 2:2:1 to measure a degree of inhibition of the enzyme activity with luminescence. The degree of inhibition of the enzyme activity according to the treatment concentration of each of the compounds was calculated based on the fluorescence of the enzyme activity of the solvent control which was not treated with the compound. In this case, the concentration of each of the compounds inhibiting 50% of the enzyme activity was determined to be an IC50 (nM) value, and calculated using Prism (Version 5.01; GraphPad) software.

LRRK2 (G2019S), sequence (Q5S007 970-2527 G2019S limits assumed): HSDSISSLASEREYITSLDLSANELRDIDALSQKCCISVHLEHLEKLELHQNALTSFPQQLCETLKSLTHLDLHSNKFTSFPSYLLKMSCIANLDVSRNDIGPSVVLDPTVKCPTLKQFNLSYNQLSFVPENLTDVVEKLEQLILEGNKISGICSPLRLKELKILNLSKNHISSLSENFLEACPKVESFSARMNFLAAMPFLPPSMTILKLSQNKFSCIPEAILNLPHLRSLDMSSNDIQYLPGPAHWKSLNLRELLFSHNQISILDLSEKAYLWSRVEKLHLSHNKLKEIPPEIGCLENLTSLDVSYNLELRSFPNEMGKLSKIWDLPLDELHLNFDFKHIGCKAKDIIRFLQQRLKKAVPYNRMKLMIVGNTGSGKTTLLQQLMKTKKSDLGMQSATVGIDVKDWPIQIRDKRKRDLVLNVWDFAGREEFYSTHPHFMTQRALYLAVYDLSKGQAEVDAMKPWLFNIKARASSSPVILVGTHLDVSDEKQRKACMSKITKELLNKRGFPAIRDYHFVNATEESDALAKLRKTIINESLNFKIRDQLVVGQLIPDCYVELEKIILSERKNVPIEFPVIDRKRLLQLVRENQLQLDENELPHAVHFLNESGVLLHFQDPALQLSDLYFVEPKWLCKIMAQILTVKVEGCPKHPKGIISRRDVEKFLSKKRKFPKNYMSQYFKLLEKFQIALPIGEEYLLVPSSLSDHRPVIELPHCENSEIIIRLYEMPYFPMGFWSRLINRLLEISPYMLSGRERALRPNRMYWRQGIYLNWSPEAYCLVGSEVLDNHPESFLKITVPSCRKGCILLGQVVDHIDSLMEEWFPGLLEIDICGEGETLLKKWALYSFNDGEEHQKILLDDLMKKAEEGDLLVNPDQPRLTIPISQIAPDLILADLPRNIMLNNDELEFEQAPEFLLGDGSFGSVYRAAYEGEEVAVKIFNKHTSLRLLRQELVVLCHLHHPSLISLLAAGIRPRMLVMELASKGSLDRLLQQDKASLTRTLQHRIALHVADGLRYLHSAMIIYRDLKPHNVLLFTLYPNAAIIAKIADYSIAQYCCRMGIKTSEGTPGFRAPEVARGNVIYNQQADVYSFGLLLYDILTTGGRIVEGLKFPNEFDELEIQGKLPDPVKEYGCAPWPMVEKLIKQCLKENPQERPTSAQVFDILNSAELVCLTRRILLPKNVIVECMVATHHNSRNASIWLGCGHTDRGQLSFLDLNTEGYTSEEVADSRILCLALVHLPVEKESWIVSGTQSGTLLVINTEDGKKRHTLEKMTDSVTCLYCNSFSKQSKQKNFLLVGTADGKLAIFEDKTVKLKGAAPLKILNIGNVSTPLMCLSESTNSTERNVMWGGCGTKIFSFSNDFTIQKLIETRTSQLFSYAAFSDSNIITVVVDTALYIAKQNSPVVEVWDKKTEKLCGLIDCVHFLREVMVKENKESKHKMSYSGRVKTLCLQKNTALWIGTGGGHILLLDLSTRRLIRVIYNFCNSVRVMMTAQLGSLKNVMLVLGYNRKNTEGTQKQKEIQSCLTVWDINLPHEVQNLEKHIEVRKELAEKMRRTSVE
T2 sequence (P49759 129-484 limits assumed): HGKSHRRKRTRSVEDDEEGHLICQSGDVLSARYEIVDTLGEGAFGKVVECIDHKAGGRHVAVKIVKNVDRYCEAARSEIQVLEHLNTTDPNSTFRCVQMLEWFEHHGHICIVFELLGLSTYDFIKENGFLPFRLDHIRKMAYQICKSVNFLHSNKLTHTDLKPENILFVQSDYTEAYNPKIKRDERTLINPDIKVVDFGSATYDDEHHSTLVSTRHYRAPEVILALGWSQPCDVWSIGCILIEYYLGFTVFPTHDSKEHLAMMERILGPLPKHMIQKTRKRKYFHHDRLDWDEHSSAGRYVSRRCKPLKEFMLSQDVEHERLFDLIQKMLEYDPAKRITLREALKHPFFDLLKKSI

SMILES | IC50 (human GST-DYRK1A) | IC50 (human GST-CLK1) | IC50 (LRRK2 (G2019S))
COc1cc(S(C)(=O)=O)ccc1Nc1nc(NC2CCCC2)c2cc[nH]c2n1 [Example 1, N^4-cyclopentyl-N^2-(2-methoxy-4-(methylsulfonyl)phenyl)-7H-pyrrolo[2,3-d]pyrimidine-2,4-diamine] | 301 to 1000 nM | 301 to 1000 nM | < 100 nM
CNc1nc(Nc2ccc(S(=O)(=O)N3CCOCC3)cc2OC)nc2[nH]ccc12 [Example 2, N^2-(2-methoxy-4-(morpholinosulfonyl)phenyl)-N^4-methyl-7H-pyrrolo[2,3-d]pyrimidine-2,4-diamine 2,2,2-trifluoroacetate] | 301 to 1000 nM | 301 to 1000 nM | < 100 nM
CNc1nc(Nc2ccc(S(=O)(=O)N3CCC(N4CCOCC4)CC3)cc2OC)nc2[nH]ccc12 [Example 3, N^2-(2-methoxy-4-((4-morpholinopiperidin-1-yl)sulfonyl)phenyl)-N^4-methyl-7H-pyrrolo[2,3-d]pyrimidine-2,4-diamine 2,2,2-trifluoroacetate] | 301 to 1000 nM | 301 to 1000 nM | < 100 nM
CNc1nc(Nc2ccc(S(C)(=O)=O)cc2OC)nc2[nH]ccc12 [Example 4, N^2-(2-methoxy-4-(methylsulfonyl)phenyl)-N^4-methyl-7H-pyrrolo[2,3-d]pyrimidine-2,4-diamine 2,2,2-trifluoroacetate] | 301 to 1000 nM | 301 to 1000 nM | < 100 nM
CCNc1nc(Nc2ccc(S(=O)(=O)N3CCOCC3)cc2OC)nc2[nH]ccc12 [Example 5, N^4-ethyl-N^2-(2-methoxy-4-(morpholinosulfonyl)phenyl)-7H-pyrrolo[2,3-d]pyrimidine-2,4-diamine 2,2,2-trifluoroacetate] | 301 to 1000 nM | 301 to 1000 nM | < 100 nM
CCNc1nc(Nc2ccc(S(=O)(=O)N3CCC(N4CCOCC4)CC3)cc2OC)nc2[nH]ccc12 [Example 6, N^4-ethyl-N^2-(2-methoxy-4-((4-morpholinopiperidin-1-yl)sulfonyl)phenyl)-7H-pyrrolo[2,3-d]pyrimidine-2,4-diamine 2,2,2-trifluoroacetate] | 301 to 1000 nM | 301 to 1000 nM | < 100 nM
CCCNc1nc(Nc2ccc(S(=O)(=O)N3CCOCC3)cc2OC)nc2[nH]ccc12 [Example 7, N^2-(2-methoxy-4-(morpholinosulfonyl)phenyl)-N^4-propyl-7H-pyrrolo[2,3-d]pyrimidine-2,4-diamine 2,2,2-trifluoroacetate] | 301 to 1000 nM | 301 to 1000 nM | < 100 nM
CCCNc1nc(Nc2ccc(S(=O)(=O)N3CCC(N4CCOCC4)CC3)cc2OC)nc2[nH]ccc12 [Example 8, N^2-(2-methoxy-4-((4-morpholinopiperidin-1-yl)sulfonyl)phenyl)-N^4-propyl-7H-pyrrolo[2,3-d]pyrimidine-2,4-diamine 2,2,2-trifluoroacetate] | 301 to 1000 nM | 301 to 1000 nM | < 100 nM
CCCNc1nc(Nc2ccc(S(C)(=O)=O)cc2OC)nc2[nH]ccc12 [Example 9, N^2-(2-methoxy-4-(methylsulfonyl)phenyl)-N^4-propyl-7H-pyrrolo[2,3-d]pyrimidine-2,4-diamine 2,2,2-trifluoroacetate] | 301 to 1000 nM | 301 to 1000 nM | < 100 nM
COc1cc(S(=O)(=O)N2CCOCC2)ccc1Nc1nc(NCC(C)C)c2cc[nH]c2n1 [Example 10, N^4-isobutyl-N^2-(2-methoxy-4-(morpholinosulfonyl)phenyl)-7H-pyrrolo[2,3-d]pyrimidine-2,4-diamine] | 301 to 1000 nM | 301 to 1000 nM | < 100 nM

Second part, the compound after the results:

IC50 (human GST-DYRK1A) | IC50 (human GST-CLK1) | IC50 (LRRK2 (G2019S)) | SMILES
301 to 1000 nM | 301 to 1000 nM | < 100 nM | COc1cc(S(=O)(=O)N2CCC(N3CCOCC3)CC2)ccc1Nc1nc(NCC(C)C)c2cc[nH]c2n1 [Example 11, N^4-isobutyl-N^2-(2-methoxy-4-((4-morpholinopiperidin-1-yl)sulfonyl)phenyl)-7H-pyrrolo[2,3-d]pyrimidine-2,4-diamine]
301 to 1000 nM | 301 to 1000 nM | < 100 nM | COc1cc(S(C)(=O)=O)ccc1Nc1nc(NCC(C)C)c2cc[nH]c2n1 [Example 12, N^4-isobutyl-N^2-(2-methoxy-4-(methylsulfonyl)phenyl)-7H-pyrrolo[2,3-d]pyrimidine-2,4-diamine 2,2,2-trifluoroacetate]
301 to 1000 nM | 301 to 1000 nM | < 100 nM | COc1cc(S(=O)(=O)N2CCOCC2)ccc1Nc1nc(NC(C)C)c2cc[nH]c2n1 [Example 13, N^4-isopropyl-N^2-(2-methoxy-4-(morpholinosulfonyl)phenyl)-7H-pyrrolo[2,3-d]pyrimidine-2,4-diamine 2,2,2-trifluoroacetate]
301 to 1000 nM | 301 to 1000 nM | < 100 nM | COc1cc(S(C)(=O)=O)ccc1Nc1nc(NC(C)C)c2cc[nH]c2n1 [Example 14, N^4-isopropyl-N^2-(2-methoxy-4-(methylsulfonyl)phenyl)-7H-pyrrolo[2,3-d]pyrimidine-2,4-diamine 2,2,2-trifluoroacetate]
301 to 1000 nM | 301 to 1000 nM | < 100 nM | COCCNc1nc(Nc2ccc(S(C)(=O)=O)cc2OC)nc2[nH]ccc12 [Example 21, N^2-(2-methoxy-4-(methylsulfonyl)phenyl)-N^4-(2-methoxyethyl)-7H-pyrrolo[2,3-d]pyrimidine-2,4-diamine 2,2,2-trifluoroacetate]
301 to 1000 nM | 301 to 1000 nM | < 100 nM | COc1cc(S(=O)(=O)N2CCOCC2)ccc1Nc1nc(NC2CCC2)c2cc[nH]c2n1 [Example 22, N^4cyclobutyl-N^2-(2-methoxy-4-(morpholinosulfonyl)phenyl)-7H-pyrrolo[2,3-d]pyrimidine-2,4-diamine]
301 to 1000 nM | 301 to 1000 nM | < 100 nM | COc1cc(S(=O)(=O)N2CCC(N3CCOCC3)CC2)ccc1Nc1nc(NC2CCC2)c2cc[nH]c2n1 [Example 23, N^4-cyclobutyl-N^2-(2-methoxy-4-((4-morpholinopiperidin-1-yl)sulfonyl)phenyl)-7H-pyrrolo[2,3-d]pyrimidine-2,4-diamine 2,2,2-trifluoroacetate]
301 to 1000 nM | 301 to 1000 nM | < 100 nM | COc1cc(S(C)(=O)=O)ccc1Nc1nc(NC2CCC2)c2cc[nH]c2n1 [Example 24, N^4-cyclobutyl-N^2-(2-methoxy-4-(methylsulfonyl)phenyl)-7H-pyrrolo[2,3-d]pyrimidine-2,4-diamine]
301 to 1000 nM | 301 to 1000 nM | < 100 nM | COc1cc(S(=O)(=O)N2CCOCC2)ccc1Nc1nc(NC2CCCC2)c2cc[nH]c2n1 [Example 25, N^4-cyclopentyl-N^2-(2-methoxy-4-(morpholinosulfonyl)phenyl)-7H-pyrrolo[2,3-d]pyrimidine-2,4-diamine 2,2,2-trifluoroacetate]
301 to 1000 nM | 301 to 1000 nM | < 100 nM | COc1cc(S(=O)(=O)N2CCOCC2)ccc1Nc1nc(NC2CCCCC2)c2cc[nH]c2n1 [Example 26, N^4-cyclohexyl-N^2-(2-methoxy-4-(morpholinosulfonyl)phenyl)-7H-pyrrolo[2,3-d]pyrimidine-2,4-diamine 2,2,2-trifluoroacetate]
301 to 1000 nM | 301 to 1000 nM | < 100 nM | COc1cc(S(C)(=O)=O)ccc1Nc1nc(NC2CCCCC2)c2cc[nH]c2n1 [Example 27, N^4-cyclohexyl-N^2-(2-methoxy-4-(methylsulfonyl)phenyl)-7H-pyrrolo[2,3-d]pyrimidine-2,4-diamine 2,2,2-trifluoroacetate]
101 to 300 nM | 301 to 1000 nM |  | O=C(c1ccc(Nc2nc(NCC3CCC3)c3c(C(F)(F)F)c[nH]c3n2)c2c1CCO2)N1CCC(N2CCOCC2)CC1 [Example 462, (7-((4-((cyclo-butylmethyl)amino)-5-(trifluoromethyl)-7H-pyrrolo[2,3-d]pyrimidin-2-yl)amino)-2,3-dihydrobenzo-furan-4-yl)(4-morpho-linopiperidin-1-yl)methanone]

— patent US20230066011A1, “PYRROLOPYRIMIDINE DERIVATIVE, AND PHARMACEUTICAL COMPOSITION FOR PREVENTING OR TREATING PROTEIN KINASE-RELATED DISEASE COMPRISING SAME AS ACTIVE INGREDIENT” (VORONOI CO., LTD., priority 2019, published 2023)
